# Data: patent publication US4563472A, “Iodoallyl and iodopropargyl substituted tetrazoles and anti-microbial compositions thereof” (Meiji Seika Kaisha, Ltd., priority 1982, dated 1986)
# Read-outs that look alike come from different tables or passages of the source.
# Key:
# Format in all cases: cell-based
# [1] = tested on: Pseudomonas cepacia M-0527; assay: Antibacterial Activity (in medicinal field), MIC; settings: Burkholderia cepacia, M0527, read-out: Minimal Inhibitory Conc. (MIC)
# [2] = tested on: Trichophyton interdigitale; assay: Antifungal Activity (in Medicinal Field), MIC; settings: read-out: Minimal Inhibitory Conc. (MIC)
# [3] = tested on: Aspergillus fumigatus Saito; assay: Antifungal Activity (in Medicinal Field), MIC; settings: read-out: Minimal Inhibitory Conc. (MIC)
# [4] = tested on: Candida alubicans GA-24; assay: Antifungal Activity (in Medicinal Field), MIC; settings: GA24; Candida alubicans GA-24; read-out: Minimal Inhibitory Conc. (MIC)
# [5] = tested on: Serratia marcescens MB-3848; assay: Antibacterial Activity (in medicinal field), MIC; settings: MB3848, read-out: Minimal Inhibitory Conc. (MIC)
# [6] = tested on: Bacillus anthracis No. 119; assay: microbe, parasite or virus in culture; settings: NO.119, read-out: Minimal Inhibitory Conc. (MIC)
# [7] = tested on: Proteus vulgaris OX-19; assay: Antibacterial Activity (in medicinal field), MIC; settings: OX19, read-out: Minimal Inhibitory Conc. (MIC)
# [8] = tested on: Klebsiella pneumoniae PCI-602; assay: Antibacterial Activity (in medicinal field), MIC; settings: PCI602, read-out: Minimal Inhibitory Conc. (MIC)
# [9] = tested on: Pseudomonas maltophilia M-0627; assay: Antibacterial Activity (in medicinal field), MIC; settings: Stenotrophomonas maltophilia, M0627, read-out: Minimal Inhibitory Conc. (MIC)
# [10] = tested on: Staphylococcus aureus 209P JC-1; assay: Antibacterial Activity (in medicinal field), MIC; settings: read-out: Minimal Inhibitory Conc. (MIC)
# [11] = tested on: Trichophyton metagrophytes 530324; assay: Antifungal Activity (in Medicinal Field), MIC; settings: Trichophyton metagrophytes 530324; read-out: Minimal Inhibitory Conc. (MIC)
# [12] = tested on: Cryptococcus neoformans Cr-1; assay: Antifungal Activity (in Medicinal Field), MIC; settings: CR1, read-out: Minimal Inhibitory Conc. (MIC)
# [13] = tested on: Escherichia coli NIHJ JC-2; assay: Antibacterial Activity (in medicinal field), MIC; settings: NIHJJC2, read-out: Minimal Inhibitory Conc. (MIC)
# [14] = tested on: Salmonella typhi O-901-W; assay: Antibacterial Activity (in medicinal field), MIC; settings: Salmonella enterica, read-out: Minimal Inhibitory Conc. (MIC)
# [15] = tested on: Shigella sonnei EW 33 Type I; assay: Antibacterial Activity (in medicinal field), MIC; settings: EW33TYPEI; Shigella sonnei EW 33 Type I; read-out: Minimal Inhibitory Conc. (MIC)
# [16] = tested on: Gibberella fujikuroi; assay: Antibacterial and Antifungal Activities (in Agricultural Field), MIC; settings: Fusarium fujikuroi, read-out: Minimal Inhibitory Conc. (MIC)
# [17] = tested on: Botrytis cinerea; assay: as above; settings: read-out: Minimal Inhibitory Conc. (MIC)
# [18] = tested on: Corynebacterium michiganense; assay: as above; settings: Clavibacter michiganensis; Corynebacterium michiganense; read-out: Minimal Inhibitory Conc. (MIC)
# [19] = tested on: Rhizopus nigricans S.N. 32; assay: Antifungal Activity (in Industrial Field), MIC; settings: Rhizopus stolonifer, read-out: Minimal Inhibitory Conc. (MIC)
# [20] = tested on: Xanthomonas campestris pv. oryzae; assay: microbe, parasite or virus in culture; settings: read-out: Minimal Inhibitory Conc. (MIC)
# [21] = tested on: Aspergillus flavus ATCC 6275; assay: Antifungal Activity (in Industrial Field), MIC; settings: ATCC6275, read-out: Minimal Inhibitory Conc. (MIC)
# [22] = tested on: Pullularia pullulans IAM F-24; assay: Antifungal Activity (in Industrial Field), MIC; settings: IAMF24; Pullularia pullulans IAM F-24; read-out: Minimal Inhibitory Conc. (MIC)
# [23] = tested on: Chaetomium globosum ATCC 6205; assay: Antifungal Activity (in Industrial Field), MIC; settings: ATCC6205, read-out: Minimal Inhibitory Conc. (MIC)
# [24] = tested on: Fusarium oxysporum f. lycopersici; assay: Antibacterial and Antifungal Activities (in Agricultural Field), MIC; settings: read-out: Minimal Inhibitory Conc. (MIC)
# [25] = tested on: Cochliobolus miyabeanus; assay: as above; settings: Bipolaris oryzae, read-out: Minimal Inhibitory Conc. (MIC)
# [26] = tested on: Pellicularia filamentosa; assay: as above; settings: read-out: Minimal Inhibitory Conc. (MIC)
# [27] = tested on: Phricularia oryzae; assay: as above; settings: read-out: Minimal Inhibitory Conc. (MIC)
# [28] = tested on: Xanthomonas campestris pv. citri; assay: as above; settings: read-out: Minimal Inhibitory Conc. (MIC)
# [29] = tested on: Alternaria kikuchiana; assay: as above; settings: read-out: Minimal Inhibitory Conc. (MIC)
# [30] = tested on: Cladosporium herbarum IAM F-517; assay: Antifungal Activity (in Industrial Field), MIC; settings: IAMF517, read-out: Minimal Inhibitory Conc. (MIC)
# [31] = tested on: Mucor spinescens IAM Mu3; assay: Antifungal Activity (in Industrial Field), MIC; settings: IAMMU3, read-out: Minimal Inhibitory Conc. (MIC)
# [32] = tested on: Diaporithe citri; assay: Antibacterial and Antifungal Activities (in Agricultural Field), MIC; settings: read-out: Minimal Inhibitory Conc. (MIC)
# [33] = tested on: Aspergillus fumigatus IAM 2621; assay: Antifungal Activity (in Industrial Field), MIC; settings: IAM2621, read-out: Minimal Inhibitory Conc. (MIC)
# [34] = tested on: Trichoderma T-1 ATCC 9645; assay: Antifungal Activity (in Industrial Field), MIC; settings: ATCC9645, read-out: Minimal Inhibitory Conc. (MIC)
# [35] = tested on: Colletotrichum lagenarium; assay: Antibacterial and Antifungal Activities (in Agricultural Field), MIC; settings: Colletotrichum orbiculare, read-out: Minimal Inhibitory Conc. (MIC)
# [36] = tested on: Aspergillus terreus PQMD 82 j; assay: Antifungal Activity (in Industrial Field), MIC; settings: PQMD82J, read-out: Minimal Inhibitory Conc. (MIC)
# [37] = tested on: Erwinia carotovora; assay: Antibacterial and Antifungal Activities (in Agricultural Field), MIC; settings: Pectobacterium carotovorum, read-out: Minimal Inhibitory Conc. (MIC)
# [38] = tested on: Pseudomonas syringae pv. tabaci; assay: as above; settings: read-out: Minimal Inhibitory Conc. (MIC)
# [39] = tested on: Penicillium luteum ATCC 9644; assay: Antifungal Activity (in Industrial Field), MIC; settings: Ascospirella lutea, ATCC9644, read-out: Minimal Inhibitory Conc. (MIC)
# [40] = tested on: Glomerella cingulata; assay: Antibacterial and Antifungal Activities (in Agricultural Field), MIC; settings: Colletotrichum gloeosporioides, read-out: Minimal Inhibitory Conc. (MIC)
smiles,measurement,setting,value
"IC(I)=C(I)Cn1cnnn1 [1-(2',3',3'-triiodoallyl)tetrazole]",MIC,[1],0.78 µg/mL
same,MIC,[2],0.39 µg/mL
same,MIC,[3],0.78 µg/mL
same,MIC,[4],3.12 µg/mL
same,MIC,[5],3.13 µg/mL
same,MIC,[6],0.78 µg/mL
same,MIC,[7],6.25 µg/mL
same,MIC,[8],3.13 µg/mL
same,MIC,[9],0.78 µg/mL
same,MIC,[10]; Staphylococcus aureus 209P JC-1,31.3 µg/mL
same,MIC,[11],0.39 µg/mL
same,MIC,[12],3.12 µg/mL
same,MIC,[13],3.13 µg/mL
same,MIC,[14],1.56 µg/mL
same,MIC,[15],3.13 µg/mL
"IC(I)=C(I)Cn1ncnn1 [2-(2',3',3'-triiodoallyl)tetrazole]",MIC,[16],0.39 µg/mL
same,MIC,[1],1.56 µg/mL
same,MIC,[17],0.39 µg/mL
same,MIC,[2],0.09 µg/mL
same,MIC,[18],12.5 µg/mL
same,MIC,[19],3.13 µg/mL
same,MIC,[20],6.25 µg/mL
same,MIC,[21],0.78 µg/mL
same,MIC,[22],0.76 µg/mL
same,MIC,[23],12.5 µg/mL
same,MIC,[24],1.56 µg/mL
same,MIC,[25],1.56 µg/mL
same,MIC,[3],0.19 µg/mL
same,MIC,[26],50 µg/mL
same,MIC,[27],3.13 µg/mL
same,MIC,[4],0.19 µg/mL
same,MIC,[28],25 µg/mL
same,MIC,[29],3.13 µg/mL
same,MIC,[30],6.25 µg/mL
same,MIC,[31],1.56 µg/mL
same,MIC,[5],6.25 µg/mL
same,MIC,[32],0.78 µg/mL
same,MIC,[33],6.25 µg/mL
same,MIC,[34],3.13 µg/mL
same,MIC,[35],0.78 µg/mL
same,MIC,[36],0.78 µg/mL
same,MIC,[6],1.56 µg/mL
same,MIC,[7],12.5 µg/mL
same,MIC,[8],12.5 µg/mL
same,MIC,[9],1.56 µg/mL
same,MIC,"[10]; Staphylococcus aureus, 209P",6.25 µg/mL
same,MIC,[11],0.09 µg/mL
same,MIC,[12],0.78 µg/mL
same,MIC,[37],> 100 µg/mL
same,MIC,[38],> 100 µg/mL
same,MIC,[39],6.25 µg/mL
same,MIC,[13],12.5 µg/mL
same,MIC,[40],0.39 µg/mL
same,MIC,[14],6.25 µg/mL
same,MIC,[15],6.25 µg/mL
